For orientation: IC50 means the point on the concentration scale where inhibition reaches its midpoint. High values mean lower potency, low ones higher potency. The ED50 is the dose at which the effect has come halfway, by size or by number of responders. Read a high ED50 as a need for a large dose.

The species entered for test [1] is Rattus norvegicus. Briefly: Compound was evaluated for its ability to inhibit high-affinity uptake of [3H]dopamine into striatal nerve endings of rat. The test is classed as functional.
The target of test [2] is Sodium-dependent dopamine transporter (Rattus norvegicus, UniProt P23977). In words: Compound was evaluated for its ability to displace [3H]mazindol binding from rat striatal membranes.
Sequence of Sodium-dependent dopamine transporter (P23977 whole entry): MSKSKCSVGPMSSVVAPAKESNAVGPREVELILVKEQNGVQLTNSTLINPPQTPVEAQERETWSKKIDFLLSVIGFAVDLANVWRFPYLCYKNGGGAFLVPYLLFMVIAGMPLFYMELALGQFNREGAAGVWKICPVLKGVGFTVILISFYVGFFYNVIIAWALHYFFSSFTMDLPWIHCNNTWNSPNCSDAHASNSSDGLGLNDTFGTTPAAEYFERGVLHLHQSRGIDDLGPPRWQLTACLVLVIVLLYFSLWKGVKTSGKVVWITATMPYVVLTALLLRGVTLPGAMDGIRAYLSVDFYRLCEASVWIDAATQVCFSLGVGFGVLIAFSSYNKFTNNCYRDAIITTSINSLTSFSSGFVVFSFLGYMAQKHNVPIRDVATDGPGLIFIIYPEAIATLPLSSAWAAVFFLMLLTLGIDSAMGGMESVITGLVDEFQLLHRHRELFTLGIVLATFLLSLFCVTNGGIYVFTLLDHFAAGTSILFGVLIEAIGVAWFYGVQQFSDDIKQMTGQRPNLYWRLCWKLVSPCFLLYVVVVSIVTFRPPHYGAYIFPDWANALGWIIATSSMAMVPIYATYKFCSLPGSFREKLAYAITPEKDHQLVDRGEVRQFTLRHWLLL
For test [3], the species on record is Rattus norvegicus. Briefly: Compound was evaluated for its ability to displace [3H]-mazindol binding from rat striatal membranes.
Test [4] is filed under the species Rattus norvegicus. In words: Result of substitution tests in trained rats and expressed as effective dose(post injection interval 120 min). It counts as functional. To be noted: 2 h.
The subject of test [5] is Rattus norvegicus. Briefly: Percent response at dose 0.4 mg/kg evaluated by substitution tests in trained rats(post injection interval 240 min). It counts as functional.
For test [6], the system named is Rattus norvegicus. In words: Percent response at dose 0.4 mg/kg evaluated by substitution tests in trained rats(post injection interval 30 min). It counts as functional.
In test [7] the test system is Rattus norvegicus. In words: Percent response at dose 0.8 mg/kg evaluated by substitution tests in trained rats(post injection interval 120 min). The test is classed as functional.
Test [8] concerns Rattus norvegicus. In words: Percent response at dose 0.8 mg/kg evaluated by substitution tests in trained rats(post injection interval 240 min). It counts as functional.
The subject of test [9] is Rattus norvegicus. In words: Percent response at dose 0.8 mg/kg evaluated by substitution tests in trained rats(post injection interval 30 min). The test is classed as functional.
Test [10] is filed under the species Rattus norvegicus. Briefly: Result of substitution tests in trained rats and expressed as effective dose(post injection interval 240 min). It counts as functional. As to conditions: 4 h.
Test [11] is filed under the species Rattus norvegicus. Briefly: Result of substitution tests in trained rats and expressed as effective dose(post injection interval 30 min). The test is classed as functional. To be noted: 0.5 h.
Test [12] concerns Rattus norvegicus. In words: Percent response at dose 0.05 mg/kg evaluated by substitution tests in trained rats(post injection interval 120 min). It counts as functional.
Test [13] concerns Rattus norvegicus. In words: Percent response at dose 0.05 mg/kg evaluated by substitution tests in trained rats(post injection interval 240 min). The test is classed as functional.
The test system of test [14] is Rattus norvegicus. Briefly: Percent response at dose 0.05 mg/kg evaluated by substitution tests in trained rats(post injection interval 30 min). It counts as functional.
Test [15] relates to Rattus norvegicus. Briefly: Percent response at dose 0.1 mg/kg evaluated by substitution tests in trained rats(post injection interval 120 min). The test is classed as functional.
Test [16] has as its system Rattus norvegicus. Briefly: Percent response at dose 0.1 mg/kg evaluated by substitution tests in trained rats(post injection interval 240 min). The test is classed as functional.
The test system of test [17] is Rattus norvegicus. In words: Percent response at dose 0.1 mg/kg evaluated by substitution tests in trained rats(post injection interval 30 min). The test is classed as functional.
For test [18], the system named is Rattus norvegicus. In words: Percent response at dose 0.2 mg/kg evaluated by substitution tests in trained rats(post injection interval 120 min). The test is classed as functional.
Test [19] relates to Rattus norvegicus. Briefly: Percent response at dose 0.2 mg/kg evaluated by substitution tests in trained rats(post injection interval 30 min). The test is classed as functional.
Test [20] has as its system Rattus norvegicus. Briefly: Percent response at dose 0.4 mg/kg evaluated by substitution tests in trained rats(post injection interval 120 min). It counts as functional.
Test [21] has as its system Rattus norvegicus. In words: Number of animals(n) completing 20 responses on either lever out of the number of animals tested (N) at dose 0.05 mg/kg evaluated by dose-response tests in trained rats(post injection interval 120 min); n/N=7/7. It counts as functional.
Test [22] concerns Rattus norvegicus. Briefly: Number of animals(n) completing 20 responses on either lever out of the number of animals tested (N) at dose 0.05 mg/kg evaluated by dose-response tests in trained rats(post injection interval 240 min); n/N=7/7. The test is classed as functional.
In test [23] the test system is Rattus norvegicus. In words: Number of animals(n) completing 20 responses on either lever out of the number of animals tested (N) at dose 0.05 mg/kg evaluated by dose-response tests in trained rats(post injection interval 30 min); n/N=7/7. The test is classed as functional.
Test [24] concerns Rattus norvegicus. Briefly: Number of animals(n) completing 20 responses on either lever out of the number of animals tested (N) at dose 0.1 mg/kg evaluated by dose-response tests in trained rats(post injection interval 120 min); n/N=7/7. The test is classed as functional.
Test [25] concerns Rattus norvegicus. Briefly: Number of animals(n) completing 20 responses on either lever out of the number of animals tested (N) at dose 0.1 mg/kg evaluated by dose-response tests in trained rats(post injection interval 240 min); n/N=7/7. The test is classed as functional.
For test [26], the system named is Rattus norvegicus. Briefly: Number of animals(n) completing 20 responses on either lever out of the number of animals tested (N) at dose 0.1 mg/kg evaluated by dose-response tests in trained rats(post injection interval 30 min); n/N=7/7. It counts as functional.
For test [27], the system named is Rattus norvegicus. In words: Number of animals(n) completing 20 responses on either lever out of the number of animals tested (N) at dose 0.2 mg/kg evaluated by dose-response tests in trained rats(post injection interval 120 min); n/N=7/7. It counts as functional.
In test [28] the test system is Rattus norvegicus. In words: Number of animals(n) completing 20 responses on either lever out of the number of animals tested (N) at dose 0.2 mg/kg evaluated by dose-response tests in trained rats(post injection interval 240 min); n/N=7/7. The test is classed as functional.
The test system of test [29] is Rattus norvegicus. Briefly: Number of animals(n) completing 20 responses on either lever out of the number of animals tested (N) at dose 0.2 mg/kg evaluated by dose-response tests in trained rats(post injection interval 30 min); n/N=7/7. It counts as functional.
Test [30] concerns Rattus norvegicus. In words: Number of animals(n) completing 20 responses on either lever out of the number of animals tested (N) at dose 0.4 mg/kg evaluated by dose-response tests in trained rats(post injection interval 120 min); n/N=3/5. It counts as functional.
The test system of test [31] is Rattus norvegicus. In words: Number of animals(n) completing 20 responses on either lever out of the number of animals tested (N) at dose 0.4 mg/kg evaluated by dose-response tests in trained rats(post injection interval 240 min); n/N=4/5. It counts as functional.
The test system of test [32] is Rattus norvegicus. Briefly: Number of animals(n) completing 20 responses on either lever out of the number of animals tested (N) at dose 0.4 mg/kg evaluated by dose-response tests in trained rats(post injection interval 30 min); n/N=7/7. The test is classed as functional.
Test [33] deals with Rattus norvegicus. In words: Number of animals(n) completing 20 responses on either lever out of the number of animals tested (N) at dose 0.8 mg/kg evaluated by dose-response tests in trained rats(post injection interval 120 min); n/N=1/7. It counts as functional.
Test [34] concerns Rattus norvegicus. In words: Number of animals(n) completing 20 responses on either lever out of the number of animals tested (N) at dose 0.8 mg/kg evaluated by dose-response tests in trained rats(post injection interval 240 min); n/N=3/7. The test is classed as functional.
Test [35] concerns Rattus norvegicus. In words: Number of animals(n) completing 20 responses on either lever out of the number of animals tested (N) at dose 0.8 mg/kg evaluated by dose-response tests in trained rats(post injection interval 30 min); n/N=7/7. The test is classed as functional.
Test [36] relates to Rattus norvegicus. In words: Mean responses per minute at dose 0.05 mg/kg evaluated by substitution tests in trained rats(post injection interval 30 min). It counts as functional.
Test [37] concerns Rattus norvegicus. Briefly: Mean responses per minute at dose 0.1 mg/kg evaluated by substitution tests in trained rats(post injection interval 120 min). It counts as functional.
For test [38], the system named is Rattus norvegicus. In words: Mean responses per minute at dose 0.1 mg/kg evaluated by substitution tests in trained rats(post injection interval 240 min). It counts as functional.
Test [39] relates to Rattus norvegicus. In words: Mean responses per minute at dose 0.1 mg/kg evaluated by substitution tests in trained rats(post injection interval 30 min). The test is classed as functional.
In test [40] the test system is Rattus norvegicus. Briefly: Mean responses per minute at dose 0.2 mg/kg evaluated by substitution tests in trained rats(post injection interval 120 min). It counts as functional.
Test [41] concerns Rattus norvegicus. Briefly: Mean responses per minute at dose 0.2 mg/kg evaluated by substitution tests in trained rats(post injection interval 240 min). It counts as functional.
Test [42] concerns Rattus norvegicus. Briefly: Mean responses per minute at dose 0.2 mg/kg evaluated by substitution tests in trained rats(post injection interval 30 min). The test is classed as functional.
The subject of test [43] is Rattus norvegicus. Briefly: Mean responses per minute at dose 0.4 mg/kg evaluated by substitution tests in trained rats(post injection interval 120 min). The test is classed as functional.
Test [44] has as its system Rattus norvegicus. In words: Mean responses per minute at dose 0.4 mg/kg evaluated by substitution tests in trained rats(post injection interval 240 min). The test is classed as functional.
Test [45] relates to Rattus norvegicus. Briefly: Mean responses per minute at dose 0.4 mg/kg evaluated by substitution tests in trained rats(post injection interval 30 min). The test is classed as functional.
The subject of test [46] is Rattus norvegicus. In words: Mean responses per minute at dose 0.05 mg/kg evaluated by substitution tests in trained rats(post injection interval 120 min). It counts as functional.
Test [47] relates to Rattus norvegicus. Briefly: Mean responses per minute at dose 0.05 mg/kg evaluated by substitution tests in trained rats(post injection interval 240 min). It counts as functional.
Test [48] concerns Rattus norvegicus. In words: Mean responses per minute at dose 0.8 mg/kg evaluated by substitution tests in trained rats(post injection interval 120 min). The test is classed as functional.
Test [49] concerns Rattus norvegicus. Briefly: Mean responses per minute at dose 0.8 mg/kg evaluated by substitution tests in trained rats(post injection interval 240 min). It counts as functional.
The subject of test [50] is Rattus norvegicus. In words: Mean responses per minute at dose 0.8 mg/kg evaluated by substitution tests in trained rats(post injection interval 30 min). It counts as functional.
Test [51] deals with Rattus norvegicus. Briefly: Percent response at dose 0.2 mg/kg evaluated by substitution tests in trained rats(post injection interval 240 min). The test is classed as functional.

In turn, `COC(=O)C1C2CC[C@H](C[C@@H]1c1ccc(Cl)cc1)N2C` (stereo partly specified) registered an IC50 in the test listed under Rattus norvegicus [1] of 0.0032 µM.
On to `CN1C2CC[C@@H]1C[C@H](OC(=O)c1ccccc1)[C@@H]2/C=C/Cl`, for which the 50% inhibitory concentration (IC50) in test [2] turned out to be 0.222 µM; in the test listed under Rattus norvegicus [1] it was 0.368 µM.
Take `CN1C2CCC1[C@@H](/C=C/Cl)[C@@H](c1ccc(Cl)cc1)C2` (stereo partly specified): the concentration for half-maximal inhibition (IC50) in the test filed under Rattus norvegicus [3] worked out at 0.0007 µM; in the test filed under Rattus norvegicus [1], 0.0013 µM.
As to `C=C[C@@H]1C2CC[C@H](C[C@@H]1OC(=O)c1ccccc1)N2C`, the IC50 in test [2] came out at 1.73 µM; in the test filed under Rattus norvegicus [1], 1.12 µM.
Consider `C=C[C@@H]1C2CCC(C[C@@H]1c1ccc(Cl)cc1)N2C` (stereo partly specified), for which the ED50 in the test filed under Rattus norvegicus [4] was 0.08 mg/kg; in the test filed under Rattus norvegicus [10], 0.09 mg/kg; in the test filed under Rattus norvegicus [11], 0.11 mg/kg. The Drug response came out at 91% in the test on Rattus norvegicus [5]; 99% with Rattus norvegicus [6]; 95% in the test with Rattus norvegicus [7]; 100% in the test with Rattus norvegicus [8]; 93% with Rattus norvegicus [9]; 22% with Rattus norvegicus [12]. Moreover, the Drug response stood at 14% in the test on Rattus norvegicus [13]; 19% with Rattus norvegicus [14]; 75% in the test on Rattus norvegicus [15]; 61% in the test on Rattus norvegicus [16]; 40% in the test on Rattus norvegicus [17]; 100% in the test on Rattus norvegicus [18]. Also, the results for the Drug response with Rattus norvegicus [19], with Rattus norvegicus [20] and with Rattus norvegicus [51] were 83%, 72% and 98%, respectively. In addition, 0.0028 µM corresponded to half-maximal inhibition in the test filed under Rattus norvegicus [1] (IC50). Also, the “No. resp animals / Total” value in the test with Rattus norvegicus [21] was 7 / 7; in the test with Rattus norvegicus [22], 7 / 7; in the test on Rattus norvegicus [23], 7 / 7; in the test on Rattus norvegicus [24], 7 / 7; in the test on Rattus norvegicus [25] it was 7 / 7; in the test with Rattus norvegicus [26], 4 / 5. Further, the “No. resp animals / Total” value in the test on Rattus norvegicus [27] is on record as 7 / 7; in the test on Rattus norvegicus [28], 7 / 7; in the test with Rattus norvegicus [29], 7 / 7; in the test on Rattus norvegicus [30], 7 / 7; in the test with Rattus norvegicus [31] it was 1 / 7; in the test on Rattus norvegicus [32] it was 7 / 7. Further, the “No. resp animals / Total” value in the test on Rattus norvegicus [33] was 5 / 5; in the test on Rattus norvegicus [34] it was 3 / 7; in the test with Rattus norvegicus [35] it was 7 / 7. Further, the Rate response in the test on Rattus norvegicus [36] worked out at 29.6 min⁻¹; in the test on Rattus norvegicus [37], 25.7 min⁻¹; in the test on Rattus norvegicus [38], 23.5 min⁻¹; in the test on Rattus norvegicus [39], 37.1 min⁻¹; with Rattus norvegicus [40] it was 46.8 min⁻¹; with Rattus norvegicus [41], 47.9 min⁻¹. Moreover, the Rate response turned out to be 26.2 min⁻¹ in the test with Rattus norvegicus [42]; 24.9 min⁻¹ with Rattus norvegicus [43]; 23.6 min⁻¹ in the test with Rattus norvegicus [44]; 52.8 min⁻¹ in the test with Rattus norvegicus [45]; 18.4 min⁻¹ in the test on Rattus norvegicus [46]; 28.3 min⁻¹ in the test on Rattus norvegicus [47]. For the same molecule, the Rate response worked out at 7.7 min⁻¹ in the test with Rattus norvegicus [48], 39.1 min⁻¹ with Rattus norvegicus [49] and 33.5 min⁻¹ in the test on Rattus norvegicus [50].
